Assay results: US8822517B2, “Arylosulfonamides for the treatment of CNS diseases” (Adamed SP. Z O.O., priority 2010, dated 2014)

Assays:
[1] = molecular target: T1, serotonine transporter (SERT) receptor (Homo sapiens, UniProt P31645); assay: Binding assay SERT (h), [3H]imipramine, CHO cells; conditions: read-out: SERT [%]
T1 construct: expressed in transfected cells; host or cells: CHO cells
Method in brief: (§1)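 Compounds were screened at 1×10^−6 M, and bound radioactivity was measured by scintillation counting. Specific binding equals total binding minus nonspecific binding obtained with an excess of unlabelled ligand.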

[2] = system: sigma σ receptor; assay: Binding assay σ (non-selective), [3H]DTG, rat cerebral cortex; conditions: percent inhibition of control specific binding; compounds tested at 1×10^−6 M
Method in brief: as §1

[3] = system: adrenergic α1 receptor; assay: Binding assay α1 (non-selective), [3H]prazosin, rat cerebral cortex; conditions: percent inhibition of control specific binding; compounds tested at 1×10^−6 M
Method in brief: as §1

[4] = molecular target: T2, muscarinic M3 receptor (Homo sapiens, UniProt P20309); assay: Binding assay M3 (h), [3H]4-DAMP, CHO cells; conditions: read-out: M3 [%]
T2 construct: expressed in transfected cells; host or cells: CHO cells
T2 sequence (P20309 whole entry): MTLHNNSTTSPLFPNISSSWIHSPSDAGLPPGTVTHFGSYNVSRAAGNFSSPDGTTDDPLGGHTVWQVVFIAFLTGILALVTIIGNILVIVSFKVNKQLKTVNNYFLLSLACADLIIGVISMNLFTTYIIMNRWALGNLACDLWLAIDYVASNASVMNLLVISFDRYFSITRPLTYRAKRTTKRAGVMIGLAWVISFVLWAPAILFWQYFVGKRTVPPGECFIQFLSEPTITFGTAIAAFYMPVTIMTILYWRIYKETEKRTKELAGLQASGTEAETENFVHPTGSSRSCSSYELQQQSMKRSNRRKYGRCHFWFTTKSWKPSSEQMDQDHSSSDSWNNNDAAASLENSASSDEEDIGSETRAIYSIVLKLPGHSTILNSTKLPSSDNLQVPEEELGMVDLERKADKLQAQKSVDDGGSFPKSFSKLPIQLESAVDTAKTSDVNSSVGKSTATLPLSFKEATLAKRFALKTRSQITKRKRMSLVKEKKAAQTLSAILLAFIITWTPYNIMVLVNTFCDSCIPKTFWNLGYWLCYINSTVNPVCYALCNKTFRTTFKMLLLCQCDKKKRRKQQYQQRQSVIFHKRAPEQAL
Method in brief: as §1

[5] = molecular target: T3, dopaminergic D2 receptor (Homo sapiens, UniProt P14416); assay: Cellular functional assay, dopaminergic D2 receptor (agonism/antagonism); format: cell-based; conditions: HEK293; for activation at 1 µM: agonist effect, percent of control specific agonist response (3 μM dopamine for control), 1×10^−6 M, D2S (h), HEK-293 cells, read-out: D2-ag [%]; for inhibition at 1 µM: read-out: D2-antag. [%]
Procedure: (§2) The compounds were tested at the concentration of 1×10^−6M.
(§3) In the Tables ag refers to agonism, and antag to antagonism).
Target sequence in this assay (P14416 whole entry): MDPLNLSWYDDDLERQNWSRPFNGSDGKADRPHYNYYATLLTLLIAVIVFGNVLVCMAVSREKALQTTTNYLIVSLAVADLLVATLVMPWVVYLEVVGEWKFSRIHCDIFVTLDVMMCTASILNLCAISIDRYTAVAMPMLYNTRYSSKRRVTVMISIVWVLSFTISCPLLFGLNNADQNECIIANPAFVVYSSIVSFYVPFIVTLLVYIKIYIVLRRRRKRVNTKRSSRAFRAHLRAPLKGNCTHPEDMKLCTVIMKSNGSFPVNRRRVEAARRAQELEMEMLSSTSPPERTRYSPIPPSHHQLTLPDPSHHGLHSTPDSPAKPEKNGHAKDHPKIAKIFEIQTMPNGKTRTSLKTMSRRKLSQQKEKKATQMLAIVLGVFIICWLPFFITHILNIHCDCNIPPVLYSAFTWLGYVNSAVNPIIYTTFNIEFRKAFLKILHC

[6] = molecular target: T4, dopaminergic D3 receptor (Homo sapiens, UniProt P35462); assay: Cellular functional assay, dopaminergic D3 receptor (agonism/antagonism); format: cell-based; conditions: for inhibition at 1 µM: CHO, read-out: D3-antag. [%]; for activation at 1 µM: agonist effect, percent of control specific agonist response (300 nM dopamine for control), 1×10^−6 M, D3 (h), CHO cells, read-out: D3-ag [%]
T4 sequence (P35462 whole entry): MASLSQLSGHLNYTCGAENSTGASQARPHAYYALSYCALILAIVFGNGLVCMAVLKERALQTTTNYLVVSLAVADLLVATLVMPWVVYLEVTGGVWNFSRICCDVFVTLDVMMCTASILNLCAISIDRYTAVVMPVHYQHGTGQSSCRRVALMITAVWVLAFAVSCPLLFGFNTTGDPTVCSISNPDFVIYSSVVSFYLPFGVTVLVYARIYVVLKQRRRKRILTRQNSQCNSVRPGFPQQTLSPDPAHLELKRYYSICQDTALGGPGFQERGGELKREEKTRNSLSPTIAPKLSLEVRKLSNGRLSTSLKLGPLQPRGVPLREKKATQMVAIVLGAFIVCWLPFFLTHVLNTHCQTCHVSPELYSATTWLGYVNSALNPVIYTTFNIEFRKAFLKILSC
Procedure: as §2, §3

[7] = molecular target: serotoninergic 5-HT2A receptor (Homo sapiens, UniProt P28223); assay: Cellular functional assay, serotoninergic 5-HT2A receptor (agonism/antagonism); format: cell-based; conditions: for activation at 1 µM: read-out: 5-HT2A -ag [%]; for inhibition at 1 µM: read-out: 5-HT2A -antag [%]
serotoninergic 5-HT2A receptor, sequence (P28223 whole entry): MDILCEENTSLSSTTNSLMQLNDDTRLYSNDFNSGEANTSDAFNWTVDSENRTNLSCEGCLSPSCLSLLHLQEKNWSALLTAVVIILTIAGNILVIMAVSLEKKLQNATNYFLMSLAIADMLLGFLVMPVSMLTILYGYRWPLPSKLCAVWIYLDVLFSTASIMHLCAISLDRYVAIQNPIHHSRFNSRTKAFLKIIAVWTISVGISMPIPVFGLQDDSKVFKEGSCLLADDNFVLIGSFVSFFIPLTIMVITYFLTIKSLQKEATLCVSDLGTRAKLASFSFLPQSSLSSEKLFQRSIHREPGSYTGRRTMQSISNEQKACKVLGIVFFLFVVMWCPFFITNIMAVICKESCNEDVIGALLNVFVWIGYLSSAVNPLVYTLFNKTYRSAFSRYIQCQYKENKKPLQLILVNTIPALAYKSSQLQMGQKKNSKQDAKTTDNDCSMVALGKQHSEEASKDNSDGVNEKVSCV
Method in brief: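 Human receptors tested in cell-based functional format for both agonist and antagonist modes. Single compound concentration of 1×10^−6M.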

[8] = molecular target: T5, serotoninergic 5-HT6 receptor (Homo sapiens, UniProt P50406); assay: Cellular functional assay, serotoninergic 5-HT6 receptor (agonism/antagonism); format: cell-based; conditions: for activation at 1 µM: agonist effect, percent of control specific agonist response, compounds tested at 1×10^−6M, read-out: 5-HT6-ag [%]; for inhibition at 1 µM: read-out: 5-HT6-antag. [%]
T5 sequence (P50406 whole entry): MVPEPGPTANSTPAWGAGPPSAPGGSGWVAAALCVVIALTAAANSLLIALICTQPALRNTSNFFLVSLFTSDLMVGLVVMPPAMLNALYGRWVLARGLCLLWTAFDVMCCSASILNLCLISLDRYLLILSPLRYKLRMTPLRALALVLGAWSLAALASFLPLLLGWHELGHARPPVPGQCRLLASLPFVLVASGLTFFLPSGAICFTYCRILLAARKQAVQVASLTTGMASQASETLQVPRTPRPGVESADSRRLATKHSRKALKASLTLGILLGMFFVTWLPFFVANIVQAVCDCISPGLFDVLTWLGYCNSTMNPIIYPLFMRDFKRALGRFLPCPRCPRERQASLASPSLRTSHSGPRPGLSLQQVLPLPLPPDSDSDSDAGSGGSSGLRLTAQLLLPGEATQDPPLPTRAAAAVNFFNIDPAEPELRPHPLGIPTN
Procedure: as §2, §3

[9] = molecular target: T6, serotoninergic 5-HT7 receptor (Homo sapiens, UniProt P34969); assay: Cellular functional assay, serotoninergic 5-HT7 receptor (agonism/antagonism); format: cell-based; conditions: for activation at 1 µM: agonist effect, percent of control specific agonist response, compounds tested at 1×10^−6M, read-out: 5-HT7-ag [%]; for inhibition at 1 µM: read-out: 5-HT7-antag. [%]
T6 sequence (P34969 whole entry): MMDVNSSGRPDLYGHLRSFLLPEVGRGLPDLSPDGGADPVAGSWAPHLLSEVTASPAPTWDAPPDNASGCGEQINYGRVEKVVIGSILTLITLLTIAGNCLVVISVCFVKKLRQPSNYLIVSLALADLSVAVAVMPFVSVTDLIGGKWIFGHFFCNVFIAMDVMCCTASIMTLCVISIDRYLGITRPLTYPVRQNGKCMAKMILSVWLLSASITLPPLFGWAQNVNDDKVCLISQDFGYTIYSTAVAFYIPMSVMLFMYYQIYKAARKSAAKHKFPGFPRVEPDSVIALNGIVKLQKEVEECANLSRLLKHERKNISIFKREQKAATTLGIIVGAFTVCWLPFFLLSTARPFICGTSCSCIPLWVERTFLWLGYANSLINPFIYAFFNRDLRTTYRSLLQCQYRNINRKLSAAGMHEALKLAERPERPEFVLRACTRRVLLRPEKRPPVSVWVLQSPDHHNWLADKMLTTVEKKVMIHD
Procedure: as §2, §3

[10] = molecular target: T7, adrenergic α2C receptor (Homo sapiens, UniProt P18825); assay: Cellular functional assay, adrenergic α2C receptor (agonism/antagonism); format: cell-based; conditions: for activation at 1 µM: agonist effect, percent of control specific agonist response, compounds tested at 1×10^−6M, read-out: α2C −ag [%]; for inhibition at 1 µM: read-out: α2C −antag. [%]
T7 sequence (P18825 1-462): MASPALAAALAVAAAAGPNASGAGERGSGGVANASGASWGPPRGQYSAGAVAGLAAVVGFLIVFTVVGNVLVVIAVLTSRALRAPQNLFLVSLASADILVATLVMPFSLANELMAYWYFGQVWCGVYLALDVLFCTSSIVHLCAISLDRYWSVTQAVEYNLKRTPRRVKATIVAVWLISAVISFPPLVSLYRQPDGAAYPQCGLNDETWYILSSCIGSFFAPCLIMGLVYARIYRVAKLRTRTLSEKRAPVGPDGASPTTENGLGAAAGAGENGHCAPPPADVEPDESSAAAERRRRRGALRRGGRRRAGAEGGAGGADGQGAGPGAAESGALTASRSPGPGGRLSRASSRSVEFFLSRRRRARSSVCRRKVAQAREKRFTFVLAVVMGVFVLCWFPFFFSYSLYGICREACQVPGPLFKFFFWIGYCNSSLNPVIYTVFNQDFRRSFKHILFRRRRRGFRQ
Procedure: as §2, §3

[11] = molecular target: T8, histaminergic H1 receptor (Homo sapiens, UniProt P35367); assay: Cellular functional assay, histaminergic H1 receptor (agonism/antagonism); format: cell-based; conditions: for activation at 1 µM: agonist effect, percent of control specific agonist response, compounds tested at 1×10^−6M, read-out: H1 -ag [%]; for inhibition at 1 µM: read-out: H1 -antag. [%]
T8 sequence (P35367 whole entry): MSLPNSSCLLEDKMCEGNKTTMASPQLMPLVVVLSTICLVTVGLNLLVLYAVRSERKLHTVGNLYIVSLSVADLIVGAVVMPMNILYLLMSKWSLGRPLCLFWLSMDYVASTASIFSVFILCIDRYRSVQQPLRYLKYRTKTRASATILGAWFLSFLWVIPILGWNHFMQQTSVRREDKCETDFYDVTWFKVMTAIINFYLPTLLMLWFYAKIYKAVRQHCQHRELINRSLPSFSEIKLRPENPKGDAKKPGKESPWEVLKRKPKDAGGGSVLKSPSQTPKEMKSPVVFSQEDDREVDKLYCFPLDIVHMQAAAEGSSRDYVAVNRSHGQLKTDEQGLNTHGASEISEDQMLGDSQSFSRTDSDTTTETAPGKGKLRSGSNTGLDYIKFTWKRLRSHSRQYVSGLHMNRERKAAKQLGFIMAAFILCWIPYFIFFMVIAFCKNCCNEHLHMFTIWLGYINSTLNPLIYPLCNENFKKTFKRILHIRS
Procedure: as §2, §3

[12] = molecular target: T4, dopaminergic D3 receptor; assay: Binding assay D3 (h), [3H]methyl-spiperone, CHO cells; design: expressed in transfected cells; host or cells: CHO cells; conditions: read-out: D3 [%]
Method in brief: as §1

[13] = molecular target: T5, serotoninergic 5-HT6 receptor; assay: Binding assay 5-HT6 (h), [3H]LSD, CHO cells; design: expressed in transfected cells; host or cells: CHO cells; conditions: read-out: 5-HT6
Method in brief: as §1

[14] = molecular target: T6, serotoninergic 5-HT7 receptor; assay: Binding assay 5-HT7 (h), [3H]LSD, CHO cells; design: expressed in transfected cells; host or cells: CHO cells; conditions: read-out: 5-HT7
Method in brief: as §1

[15] = molecular target: T7, adrenergic α2C receptor; assay: Binding assay α2C (h), [3H]RX 821002, CHO cells; design: expressed in transfected cells; host or cells: CHO cells; conditions: read-out: α2C [%]
Method in brief: as §1

[16] = molecular target: T3, dopaminergic D2 receptor; assay: Binding assay D2S (h), [3H]methyl-spiperone, HEK-293 cells; design: expressed in transfected cells; host or cells: HEK-293 cells; conditions: read-out: D2 [%]
Method in brief: as §1
Target sequence in this assay (P14416 1-414 isoform P14416-2): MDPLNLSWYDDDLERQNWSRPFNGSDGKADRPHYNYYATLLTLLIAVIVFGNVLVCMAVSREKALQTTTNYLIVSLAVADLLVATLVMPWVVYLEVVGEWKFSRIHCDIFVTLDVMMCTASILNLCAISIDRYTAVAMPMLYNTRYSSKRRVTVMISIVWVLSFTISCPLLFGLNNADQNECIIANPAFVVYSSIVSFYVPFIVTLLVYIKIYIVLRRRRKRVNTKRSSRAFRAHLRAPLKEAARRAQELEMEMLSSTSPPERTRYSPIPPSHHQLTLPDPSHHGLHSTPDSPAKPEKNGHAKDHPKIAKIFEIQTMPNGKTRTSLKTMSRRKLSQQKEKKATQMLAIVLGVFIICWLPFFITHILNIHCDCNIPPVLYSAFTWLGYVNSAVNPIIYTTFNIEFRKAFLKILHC

[17] = molecular target: T8, histaminergic H1 receptor; assay: Binding assay H1 (h), [3H]pyrilamine, HEK-293 cells; design: expressed in transfected cells; host or cells: HEK-293 cells; conditions: read-out: H1 [%]
Method in brief: as §1

T1 sequence (P31645 whole entry): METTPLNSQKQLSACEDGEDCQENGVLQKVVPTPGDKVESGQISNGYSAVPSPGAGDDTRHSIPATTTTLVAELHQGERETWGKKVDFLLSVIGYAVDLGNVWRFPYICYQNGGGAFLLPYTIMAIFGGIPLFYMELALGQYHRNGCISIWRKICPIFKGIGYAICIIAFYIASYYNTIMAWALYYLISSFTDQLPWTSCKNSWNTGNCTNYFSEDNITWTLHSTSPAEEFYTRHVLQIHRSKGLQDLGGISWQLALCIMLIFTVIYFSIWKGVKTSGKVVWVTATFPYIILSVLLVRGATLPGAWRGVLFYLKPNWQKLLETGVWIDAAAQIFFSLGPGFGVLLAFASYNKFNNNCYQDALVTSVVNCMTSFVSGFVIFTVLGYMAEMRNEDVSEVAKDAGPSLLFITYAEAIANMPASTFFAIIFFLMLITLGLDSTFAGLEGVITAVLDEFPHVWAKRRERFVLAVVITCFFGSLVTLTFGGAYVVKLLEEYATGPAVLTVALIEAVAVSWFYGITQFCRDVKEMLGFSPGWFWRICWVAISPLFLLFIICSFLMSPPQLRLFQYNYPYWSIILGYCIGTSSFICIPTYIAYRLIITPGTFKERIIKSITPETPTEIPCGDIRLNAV

Structure (SMILES)	inhibition at 1 µM [1]	σ [%] [2]	α1 [%] [3]	inhibition at 1 µM [4]	activation at 1 µM [5]	inhibition at 1 µM [5]	inhibition at 1 µM [6]	activation at 1 µM [6]	activation at 1 µM [7]	inhibition at 1 µM [7]	activation at 1 µM [8]	inhibition at 1 µM [8]	activation at 1 µM [9]	inhibition at 1 µM [9]	activation at 1 µM [10]	inhibition at 1 µM [10]	activation at 1 µM [11]	inhibition at 1 µM [11]	inhibition at 1 µM [12]	inhibition at 1 µM [13]	other results
Cc1c(S(=O)(=O)NCCCCN2CCC(c3noc4cc(F)ccc34)CC2)sc2ccc(F)cc12 [Compound 101, 5-Fluoro-N-[4-[4-(6-fluoro-1,2-benzoxazol-3-yl)piperidin-1-yl]butyl]-3-methylbenzothiophene-2-sulphonamide]	47%	70%	99%	14%	6%	85%	112%	-18%	-1%	100%	-2%	103%	-2%	101%	1%	46%	33%	94%	92%	98%	inhibition at 1 µM [14]: 98%; inhibition at 1 µM [15]: 106%; inhibition at 1 µM [16]: 99%; inhibition at 1 µM [17]: 97%
Cc1c(S(=O)(=O)NCCCN2CCC(c3noc4cc(F)ccc34)CC2)sc2ccc(F)cc12 [Compound 102, 5-Fluoro-N-[3-[4-(6-fluoro-1,2-benzoxazol-3-yl)piperidin-1-yl]propyl]-3-methylbenzothiophene-2-sulphonamide]	38%	74%	99%	18%	1%	85%	83%	4%	-2%	99%	-1%	82%	-2%	94%	-7%	14%	0%	48%	103%	97%	inhibition at 1 µM [14]: 97%; inhibition at 1 µM [15]: 101%; inhibition at 1 µM [16]: 100%; inhibition at 1 µM [17]: 94%
O=S(=O)(NCCCCN1CCN(c2nsc3ccccc23)CC1)c1cc2ccccc2s1 [Compound 239, N-[4-[4-(1,2-Benzothiazol-3-yl)piperazin-1-yl]butyl]benzothiophene-2-sulphonamide]	64%	69%	99%	9%	13%	84%	84%	6%	-2%	94%	0%	70%	-2%	81%	3%	33%	0%	54%	102%	96%	inhibition at 1 µM [14]: 98%; inhibition at 1 µM [15]: 105%; inhibition at 1 µM [16]: 102%; inhibition at 1 µM [17]: 98%
O=S(=O)(NCCCCN1CCN(c2nsc3ccccc23)CC1)c1csc2ccccc12 [Compound 240, N-[4-[4-(1,2-Benzothiazol-3-yl)piperazin-1-yl]butyl]benzothiophene-3-sulphonamide]	46%	44%	96%	15%	3%	83%	72%	8%	-3%	93%	-2%	71%	-2%	98%	13%	35%	0%	69%	99%	98%	inhibition at 1 µM [14]: 97%; inhibition at 1 µM [15]: 100%; inhibition at 1 µM [16]: 101%; inhibition at 1 µM [17]: 92%
O=S(=O)(NCCCCN1CCN(c2nsc3ccccc23)CC1)c1cc2ccc(Cl)cc2s1 [Compound 241, N-[4-[4-(1,2-Benzothiazol-3-yl)piperazin-1-yl]butyl]-6-chlorobenzothiophene-2-sulphonamide]	50%	51%	93%	4%	6%	82%	78%	7%	-2%	99%	0%	69%	-2%	83%	-1%	14%	1%	47%	97%	96%	inhibition at 1 µM [14]: 99%; inhibition at 1 µM [15]: 98%; inhibition at 1 µM [16]: 100%; inhibition at 1 µM [17]: 97%
O=S(=O)(NCCCCN1CCN(c2noc3ccccc23)CC1)c1cc2ccc(Cl)cc2s1 [Compound 288, N-[4-[4-(1,2-Benzoxazol-3-yl)piperazin-1-yl]butyl]-6-chlorobenzothiophene-2-sulphonamide]	-14%	45%	94%	3%	5%	79%	72%	0%	-2%	97%	0%	74%	-2%	92%	1%	13%	0%	57%	102%	98%	inhibition at 1 µM [14]: 100%; inhibition at 1 µM [15]: 109%; inhibition at 1 µM [16]: 103%; inhibition at 1 µM [17]: 94%
